Values after ≈ are worked out from the molar mass of the structure shown. Values joined by “and” are separate entries in the source; they are usually repeats but may differ in a detail not shown here. Identical values can stand only once. Like-named read-outs stand apart in the source and are kept apart here.
What was measured:
[1] = test system: penicillin-binding proteins (PBPs); conditions: S. pneumoniae, previous assessment; ref Kocaoglu et al. 2015; cited from earlier work
S. pneumoniae IU1945 = experiment: Antimicrobial susceptibility assay; format: cell-based; conditions: Streptococcus pneumoniae
PBP1a = PBP1a (Streptococcus pneumoniae, UniProt Q8DR59); experiment: cell-based; format: binding; conditions: IC50 PBPla
PBP1a, sequence (Q8DR59 whole entry): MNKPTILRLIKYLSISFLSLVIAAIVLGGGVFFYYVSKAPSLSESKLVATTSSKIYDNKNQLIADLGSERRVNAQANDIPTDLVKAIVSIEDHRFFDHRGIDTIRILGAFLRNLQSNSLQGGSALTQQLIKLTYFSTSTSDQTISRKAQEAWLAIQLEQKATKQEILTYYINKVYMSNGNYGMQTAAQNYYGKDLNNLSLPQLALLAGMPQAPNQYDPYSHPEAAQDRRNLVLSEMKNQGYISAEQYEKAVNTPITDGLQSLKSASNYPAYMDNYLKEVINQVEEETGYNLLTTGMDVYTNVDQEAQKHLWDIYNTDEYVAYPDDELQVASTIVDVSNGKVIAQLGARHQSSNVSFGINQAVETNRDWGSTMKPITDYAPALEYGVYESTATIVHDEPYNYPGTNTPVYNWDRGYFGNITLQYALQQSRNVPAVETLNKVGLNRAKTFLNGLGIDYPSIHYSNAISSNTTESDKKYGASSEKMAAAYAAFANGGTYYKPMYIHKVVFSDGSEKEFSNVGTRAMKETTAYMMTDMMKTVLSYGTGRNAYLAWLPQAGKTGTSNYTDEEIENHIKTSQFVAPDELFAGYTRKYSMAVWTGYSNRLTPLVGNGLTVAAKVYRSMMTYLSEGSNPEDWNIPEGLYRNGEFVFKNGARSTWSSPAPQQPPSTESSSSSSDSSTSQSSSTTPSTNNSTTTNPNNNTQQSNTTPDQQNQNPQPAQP

PBP1b = PBP1b (Streptococcus pneumoniae, UniProt Q7CRA4); format: binding; conditions: read-out: IC50 PBP1b
PBP2x = PBP2x (Streptococcus pneumoniae, UniProt P59676); experiment: cell-based; format: binding
PBP2x, sequence (P59676 whole entry): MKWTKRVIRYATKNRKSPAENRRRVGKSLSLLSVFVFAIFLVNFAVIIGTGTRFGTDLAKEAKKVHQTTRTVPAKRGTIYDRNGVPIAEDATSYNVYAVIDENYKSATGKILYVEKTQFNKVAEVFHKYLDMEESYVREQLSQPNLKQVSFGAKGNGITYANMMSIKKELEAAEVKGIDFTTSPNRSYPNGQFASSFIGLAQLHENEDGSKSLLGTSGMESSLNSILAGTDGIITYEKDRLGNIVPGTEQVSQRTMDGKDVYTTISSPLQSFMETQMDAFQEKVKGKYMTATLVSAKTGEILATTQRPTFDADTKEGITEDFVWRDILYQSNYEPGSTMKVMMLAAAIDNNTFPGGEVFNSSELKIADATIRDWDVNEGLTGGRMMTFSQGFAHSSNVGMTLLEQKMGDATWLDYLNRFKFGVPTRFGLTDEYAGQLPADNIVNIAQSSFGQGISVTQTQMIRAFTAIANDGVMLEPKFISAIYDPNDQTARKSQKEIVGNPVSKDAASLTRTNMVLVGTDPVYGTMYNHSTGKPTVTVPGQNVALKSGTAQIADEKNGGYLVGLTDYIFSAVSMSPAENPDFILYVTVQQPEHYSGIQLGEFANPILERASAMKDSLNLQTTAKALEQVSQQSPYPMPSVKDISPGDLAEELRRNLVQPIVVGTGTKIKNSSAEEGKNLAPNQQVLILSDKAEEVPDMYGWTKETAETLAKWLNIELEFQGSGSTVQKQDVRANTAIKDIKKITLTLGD

PBP2a = PBP2a (Streptococcus pneumoniae, UniProt Q8DNB6); experiment: cell-based; format: binding
PBP2a, sequence (Q8DNB6 whole entry): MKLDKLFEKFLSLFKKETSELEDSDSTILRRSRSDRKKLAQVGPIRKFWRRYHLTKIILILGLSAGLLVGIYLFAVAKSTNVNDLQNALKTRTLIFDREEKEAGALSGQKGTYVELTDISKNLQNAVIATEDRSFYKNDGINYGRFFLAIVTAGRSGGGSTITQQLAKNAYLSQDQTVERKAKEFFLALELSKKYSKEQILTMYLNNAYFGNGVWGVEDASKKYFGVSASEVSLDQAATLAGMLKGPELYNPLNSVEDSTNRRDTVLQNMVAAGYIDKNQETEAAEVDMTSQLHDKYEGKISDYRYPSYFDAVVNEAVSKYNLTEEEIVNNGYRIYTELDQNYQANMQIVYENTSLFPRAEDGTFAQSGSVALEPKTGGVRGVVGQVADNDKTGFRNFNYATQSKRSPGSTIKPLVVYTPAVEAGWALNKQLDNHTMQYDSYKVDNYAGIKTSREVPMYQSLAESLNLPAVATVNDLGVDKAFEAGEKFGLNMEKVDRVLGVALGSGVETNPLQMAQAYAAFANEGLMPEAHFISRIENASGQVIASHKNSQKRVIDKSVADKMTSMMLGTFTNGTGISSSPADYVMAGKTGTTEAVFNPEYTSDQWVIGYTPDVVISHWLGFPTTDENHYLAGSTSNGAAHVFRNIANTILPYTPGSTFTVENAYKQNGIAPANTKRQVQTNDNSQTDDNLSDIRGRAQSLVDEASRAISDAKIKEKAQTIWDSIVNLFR

PBP2b = PBP2b (Streptococcus pneumoniae, UniProt P0A3M6); experiment: cell-based; format: binding
PBP2b, sequence (P0A3M6 whole entry): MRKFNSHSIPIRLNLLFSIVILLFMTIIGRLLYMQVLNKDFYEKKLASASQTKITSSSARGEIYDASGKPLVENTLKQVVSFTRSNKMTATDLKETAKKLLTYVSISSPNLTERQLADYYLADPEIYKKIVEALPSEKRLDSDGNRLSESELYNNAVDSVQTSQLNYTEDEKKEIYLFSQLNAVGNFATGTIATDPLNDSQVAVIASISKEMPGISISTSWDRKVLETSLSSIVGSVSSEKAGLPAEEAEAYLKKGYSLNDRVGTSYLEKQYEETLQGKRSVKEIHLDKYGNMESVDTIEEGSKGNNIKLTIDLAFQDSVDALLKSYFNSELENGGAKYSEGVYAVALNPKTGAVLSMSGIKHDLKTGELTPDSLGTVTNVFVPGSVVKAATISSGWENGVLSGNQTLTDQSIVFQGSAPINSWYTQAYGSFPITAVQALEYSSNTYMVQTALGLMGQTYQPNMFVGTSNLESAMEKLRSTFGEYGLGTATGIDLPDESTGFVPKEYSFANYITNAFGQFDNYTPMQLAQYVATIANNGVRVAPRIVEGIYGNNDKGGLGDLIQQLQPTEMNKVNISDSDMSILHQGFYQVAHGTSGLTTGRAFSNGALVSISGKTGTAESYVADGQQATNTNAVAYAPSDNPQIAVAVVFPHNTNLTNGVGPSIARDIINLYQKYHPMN

PBP3 = target: T1, PBP3 (Streptococcus pneumoniae, UniProt Q8DQ99); conditions: read-out: IC50 PBP3
T1 sequence (Q8DQ99 23-413): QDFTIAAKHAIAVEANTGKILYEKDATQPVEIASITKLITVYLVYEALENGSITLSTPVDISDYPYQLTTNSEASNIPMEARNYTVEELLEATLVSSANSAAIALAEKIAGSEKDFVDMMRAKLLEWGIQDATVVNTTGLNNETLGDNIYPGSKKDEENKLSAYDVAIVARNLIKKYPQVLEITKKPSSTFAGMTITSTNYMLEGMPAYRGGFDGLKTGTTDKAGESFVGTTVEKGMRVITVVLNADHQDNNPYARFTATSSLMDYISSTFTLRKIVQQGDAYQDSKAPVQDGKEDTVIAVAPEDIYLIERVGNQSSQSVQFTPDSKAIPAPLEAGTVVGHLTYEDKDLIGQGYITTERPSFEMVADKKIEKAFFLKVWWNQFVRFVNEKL

[2] = test system: penicillin-binding proteins (PBPs); conditions: line of the Δpbp1b mutant strain; 4-fold rule
[3] = strain IU1945, average ± SEM of two experiments
[4] = Δpbp1b mutant strain, average ± SEM
[5] = Δpbp1a mutant strain, average ± SEM

Structure (SMILES) | PBP selectivity (previous report) [1] | MIC (S. pneumoniae IU1945) [µM] | IC50 (PBP1a; [3]) [nM] | IC50 (PBP1b; [3]) [nM] | IC50 (PBP2x; [3]) | IC50 (PBP2a; [3]) [µM] | IC50 (PBP2b; [3]) [µM] | IC50 (PBP3; [3]) | IC50 (PBP1a; [4]) [nM] | IC50 (PBP1b; [5]) [nM] | IC50 (PBP2x; [4]) [nM] | IC50 (PBP2a; [5]) [µM] | IC50 (PBP2a; [4]) [µM] | IC50 (PBP2b; [5]) [µM] | IC50 (PBP2b; [4]) [µM] | IC50 (PBP3; [5]) [nM] | IC50 (PBP3; [4]) [nM] | IC50 (PBP2x; [5]) [nM] | PBP selectivity [2]
C[C@@H](O)[C@H]1C(=O)N2C(C(=O)O)=C(S[C@@H]3CN[C@H](CNS(N)(=O)=O)C3)[C@H](C)[C@H]12 [Doripenem, doripenem] | co-selectivity towards PBP3 along with PBP1a, but these molecules were additionally co-selective for PBP2x |  |  |  |  |  |  |  |  |  |  |  |  |  |  |  |  |  | 
Cc1onc(-c2c(Cl)cccc2Cl)c1C(=O)N[C@@H]1C(=O)N2[C@@H]1SC(C)(C)[C@@H]2C(=O)O [Dicloxacillin, dicloxacillin] |  | 0.01 (≈ 4.7 ng/mL) | 385 ± 261 | 1140 ± 1370 | 42 ± 55 nM | 4.84 ± 4.74 | 8.7 | 65 ± 51 nM |  |  |  |  |  |  |  |  |  |  | 
C[C@@H](O)[C@H]1C(=O)N2C(C(=O)[O-])=C(SC3Cn4cnc[n+]4C3)[C@H](C)[C@H]12 (stereo partly shown) [Biapenem, biapenem] |  | 0.01 (≈ 3.5 ng/mL) | 60 ± 21 | 6820 ± 4150 |  | 0.146 | 0.111 ± 0.106 | 6 ± 1 nM |  |  |  |  |  |  |  |  |  |  | 
COCC1=C(C(=O)O)N2C(=O)[C@@H](NC(=O)/C(=N\OC)c3csc(N)n3)[C@H]2SC1 [Cefpodoxime, cefpodoxime] |  | 0.01 (≈ 4.27 ng/mL) | 1920 ± 581 | 907 ± 406 | 41 ± 15 nM | 0.341 ± 0.125 | 0.522 ± 0.231 | 32 ± 5 nM | 2780 ± 886 | 301 ± 71 | 35 ± 18 | 0.621 ± 0.161 | 0.179 ± 0.081 | > 1000 | > 1000 | 32 ± 4 | 18 ± 4 |  | 
CO/N=C(\C(=O)N[C@@H]1C(=O)N2C(C(=O)[O-])=C(C[N+]3(C)CCCC3)CS[C@H]12)c1csc(N)n1 [Cefepime, cefepime] |  | 0.01 (≈ 4.81 ng/mL) |  |  |  |  |  |  |  |  |  |  |  |  |  |  |  |  | 
CC1(C)S[C@@H]2[C@H](NC(=O)C(C(=O)O)c3ccccc3)C(=O)N2[C@H]1C(=O)O (stereo partly shown) [Carbenicillin, carbenicillin] |  | 0.1 (≈ 37.8 ng/mL) | 1110 ± 367 | 859 ± 285 | 962 ± 506 nM | 5.64 ± 4.47 | 2.12 ± 1.15 | 18 ± 11 nM |  |  |  |  |  |  |  |  |  |  | 
C=CC1=C(C(=O)O)N2C(=O)[C@@H](NC(=O)/C(=N\OCC(=O)O)c3csc(N)n3)[C@H]2SC1 [Cefixime, cefixime] |  | 0.1 (≈ 45.3 ng/mL) | 32300 ± 34400 | 8960 ± 4600 | 336 ± 224 nM | 4.85 ± 2.06 | > 1000 | 26 ± 7 nM |  |  |  |  |  |  |  |  |  |  | 
Cc1onc(-c2ccccc2Cl)c1C(=O)N[C@@H]1C(=O)N2[C@@H]1SC(C)(C)[C@@H]2C(=O)O [Cloxacillin, cloxacillin] |  |  | 561 ± 219 | 977 ± 372 | 119 ± 62 nM | 4.47 ± 2.24 | 2.36 ± 1.77 | 102 ± 92 nM |  |  |  |  |  |  |  |  |  |  | 
CO[C@@]1(NC(=O)C2SC(=C(C(N)=O)C(=O)O)S2)C(=O)N2C(C(=O)O)=C(CSc3nnnn3C)CS[C@@H]21 (stereo partly shown) [Cefotetan, cefotetan] |  | 1 (≈ 576 ng/mL) | 14600 ± 6700 | 538 ± 201 | 14400 ± 5770 nM | 54.3 ± 21.5 |  | 69 ± 15 nM |  |  |  |  |  |  |  |  |  |  | 
CCOc1ccc2ccccc2c1C(=O)N[C@@H]1C(=O)N2[C@@H]1SC(C)(C)[C@@H]2C(=O)O [Nafcillin, nafcillin] |  | 0.01 (≈ 4.14 ng/mL) | 94500 ± 88600 | 32400 ± 3780 | 14 ± 6 nM | 4.54 ± 1.75 | 1.27 ± 0.306 | 125 ± 61 nM |  |  |  |  |  |  |  |  |  |  | 
CC1(C)S[C@@H]2[C@H](NC(=O)[C@H](NC(=O)N3CCNC3=O)c3ccccc3)C(=O)N2[C@H]1C(=O)O [Azlocillin, azlocillin] |  |  | 1520 ± 532 | 963 ± 477 | 81 ± 18 nM | 1.4 ± 0.693 | 0.294 ± 0.131 | 65 ± 13 nM |  |  |  |  |  |  |  |  |  |  | 
C[C@@H](O)[C@H]1C(=O)N2C(C(=O)O)=C(SCCN=CN)C[C@H]12 [Imipenem, imipenem] |  | 0.1 (≈ 29.9 ng/mL) | 27 ± 5 | 52 ± 22 | 48 ± 13 nM | 0.062 ± 0.021 | 0.052 ± 0.011 | 7 ± 1 nM |  |  |  |  |  |  |  |  |  |  | 
CC1(C)S[C@@H]2[C@H](NC(=O)[C@H](C(=O)O)c3ccsc3)C(=O)N2[C@H]1C(=O)O [Ticarcillin, ticarcillin] |  |  | 827 ± 365 | 1010 ± 331 | 251 ± 109 nM | 7.74 ± 2.6 | 3.34 ± 1.48 | 146 ± 87 nM |  |  |  |  |  |  |  |  |  |  | 
N[C@@H](C(=O)N[C@@H]1C(=O)N2C(C(=O)O)=C(Cl)CS[C@H]12)c1ccccc1 [Cefaclor, cefaclor] |  | 10 (≈ 3680 ng/mL) | 3600 ± 1330 | 8590 ± 3630 | 3670 ± 2520 nM |  | 55.4 ± 26.3 | 34 ± 9 nM |  |  |  |  |  |  |  |  |  |  | 
C[C@@H](O)[C@H]1C(=O)N2C(C(=O)O)=C(S[C@@H]3CN[C@H](C(=O)Nc4cccc(C(=O)O)c4)C3)[C@H](C)[C@H]12 [Ertapenem, ertapenem] |  | 0.01 (≈ 4.76 ng/mL) | 118 ± 64 | 137 ± 375 | 752 ± 817 nM | 26.8 ± 4.08 | 13.8 ± 3.49 | 61 ± 43 nM | 38 ± 12 | 326 ± 82 | 729 ± 122 |  | 6.69 ± 0.401 | 3.86 ± 7.4 | > 1000 | 12 ± 6 | 31 ± 11 | 341 ± 251 | co-selectivity towards PBP3 and PBP1a and 3, la
Cc1onc(-c2c(F)cccc2Cl)c1C(=O)N[C@@H]1C(=O)N2[C@@H]1SC(C)(C)[C@@H]2C(=O)O [Flucloxacillin, flucloxacillin] |  | 1 (≈ 454 ng/mL) | 12400 ± 4200 | 17700 ± 4160 | 830 nM and 832 nM | 35.3 ± 26 | 18.5 ± 11.1 | 910 nM and 911 nM | 11000 ± 2470 | 50500 ± 2030 | 2010 ± 878 | 16 ± 2.01 | 51.5 ± 5.16 | 16.8 ± 9.3 | 33.5 ± 16 | 783 ± 581 | 1950 ± 884 | 889 ± 389 | 
C[C@@H](O)[C@H]1C(=O)N2C(C(=O)O)=C(S[C@@H]3CN[C@H](C(=O)N(C)C)C3)[C@H](C)[C@H]12 [Meropenem, meropenem] | co-selectivity towards PBP3 along with PBP1a, but these molecules were additionally co-selective for PBP2x |  |  |  |  |  |  |  |  |  |  |  |  |  |  |  |  |  | 
CO/N=C(\C(=O)N[C@@H]1C(=O)N2C(C(=O)[O-])=C(C[n+]3cccc4c3CCC4)CS[C@H]12)c1csc(N)n1 [Cefpirome, cefpirome] |  | 0.01 (≈ 5.15 ng/mL) | 51 ± 11 | 24 ± 8 | 2 ± 1 nM | 0.016 ± 0.004 | 5.53 ± 2.99 |  |  |  |  |  |  |  |  |  |  |  | 
